These results are taken from patent publication US7834024B2, “Compositions and methods for inhibition of the JAK pathway” (Rigel Pharmaceuticals, Inc., priority 2007, dated 2010).

Usually IC50 stands for the concentration that gives 50% inhibition.

Each structure is given as a SMILES string.

The first assay relates to Ramos B-Cell Line Stimulated with IL-4 (JAK-1 and JAK-3 / Stat-6, CD23). The assay is described as follows: Assay for Ramos B-Cell Line Stimulated with IL-4 (CD23 upregulation, FACS). The format is cell-based. The following applies: Homo sapiens, Ramos, human Ramos B cells, compound 1 hour, IL-4 50 units/mL for 20-24 hours, anti-CD23-PE FACS; read-out: Example 2 (IC50). The method, boiled down:
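Human Ramos B cells (5×10^4 per point, RPMI with 5% serum) pre-incubated 1 hour at 37° C with compound or DMSO, then stimulated with IL-4 at 50 units/mL final for 20-24 hours. CD23 upregulation measured by flow cytometry.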
As for `Cc1cnc(Nc2ccc(C(N)=O)cc2)nc1Nc1ccc2c(c1)CCC(=O)N2C` [II-29, N2-(4-Aminocarbonylphenyl)-5-methyl-N4-(1-methyl-2-oxo-1,2,3,4-tetrahydroquinolin-6-yl)-2,4-pyrimidinediamine], the IC50 is 0.609 µM.

With `CNC(=O)COc1cc(Nc2ncc(F)c(Nc3ccc4c(c3)NC(=O)C(F)(F)O4)n2)ccc1OC` [II-34, N4-(2,2-Difluoro-3-oxo-4H-benzo[1,4]oxazin-6-yl)-5-fluoro-N2-[4-methoxy-3-(N-methylaminocarbonylmethoxy)phenyl]-2,4-pyrimidinediamine], the concentration for half-maximal inhibition (IC50) stood at 0.391 µM.

As to `COc1ccc(Nc2nc(Nc3ccc4oc(C(=O)NCCN5CCOCC5)cc4c3)ncc2F)cc1Cl` [III-1, N4-(3-Chloro-4-methoxyphenyl)-5-fluoro-N2-[2-(2-(N-morpholinyl)ethylaminocarbonyl)benzofuran-5-yl]-2,4-pyrimidinediamine], the IC50 amounted to 0.15 µM.

Turning to `COc1cc(Nc2nc(Nc3ccc4oc(C(=O)NCCN5CCOCC5)cc4c3)ncc2F)ccc1Cl` [III-2, N4-(4-Chloro-3-methoxyphenyl)-5-fluoro-N2-[2-(2-(N-morpholinyl)ethylaminocarbonyl)benzofuran-5-yl]-2,4-pyrimidinediamine], the half-inhibitory concentration (IC50) amounted to 0.144 µM.

With `CC1(C)Oc2ccc(Nc3nc(Nc4ccc5c(c4)C(=O)NCC5)ncc3F)nc2NC1=O` [IV-1, N4-[2,2-Dimethyl-3-oxo-4H-5-pyrido[1,4]oxazin-6-yl]-5-fluoro-N2-(I-oxo-1,2,3,4-tetrahydroisoquinolin-7-yl)-2,4-pyrimidinediamine], the half-maximal inhibitory concentration (IC50) was determined as 0.287 µM.

As for `Cc1cnc(Nc2cnc3c(c2)OC(C)(C)C(=O)N3)nc1Nc1cnc2c(c1)OC(C)(C)C(=O)N2` [VII-1, N4,N2-Bis(2,2-Dimethyl-3-oxo[4H]-5-pyrido[1,4]oxazin-7-yl)-5-methyl-2,4-pyrimidinediamine], the half-maximal inhibitory concentration (IC50) was found to be 2.63 µM.

With `Cc1cnc(Nc2cnc3c(c2)OCC(=O)N3)nc1Nc1cnc2c(c1)OCC(=O)N2` [VII-3, N4,N2-Bis(3-oxo[4H]-5-pyrido[1,4]oxazin-7-yl)-5-methyl-2,4-pyrimidinediamine], the IC50 was 0.195 µM.

The assay is the same for the next values; noted with them: human Ramos B cells, compound 1 hour, IL-4 50 units/mL for 20-24 hours, anti-CD23-PE FACS; read-out: Example 2 (IC50).
For the compound `CNC(=O)COc1cc(Nc2ncc(C)c(Nc3ccc4c(n3)NC(=O)C(C)(C)O4)n2)cc(OC)c1OC` [II-35, N2-[3,4-Dimethoxy-5-(N-methylaminocarbonylmethoxy)phenyl]-N4-(2,2-dimethyl-3-oxo-4H-5-pyrido[1,4]oxazin-6-yl)-5-methyl-2,4-pyrimidinediamine], the IC50 was determined as 0.0873 µM.

`CNC(=O)COc1cccc(Nc2ncc(C)c(Nc3cnc4c(c3)OC(F)(F)C(=O)N4)n2)c1` [II-36, N4-(2,2-Difluoro-3-oxo-4H-5-pyrido[1,4]oxazin-7-yl)-5-methyl-N2-[3-(N-methylaminocarbonylmethyleneoxy)phenyl]-2,4-pyrimidinediamine]: the concentration for half-maximal inhibition (IC50) is 3.78 µM.

`Cc1cnc(Nc2cccc(C(N)=O)c2)nc1Nc1ccc2c(c1)NC(=O)CO2` [II-38, N2-(3-Aminocarbonylphenyl)-N4-(3,4-dihydro-2H-3-oxo-4H-benz[1,4]oxazin-6-yl)-5-methyl-2,4-pyrimidinediamine]: the IC50 came out at 0.177 µM.

As to `Cc1cnc(Nc2cccc(C(N)=O)c2)nc1Nc1ccc2c(n1)NC(=O)C(C)(C)O2` [II-40, N2-(3-Aminocarbonylphenyl)-N4-(2,2-dimethyl-3-oxo-4H-5-pyrido[1,4]oxazin-6-yl)-5-methyl-2,4-pyrimidinediamine], the concentration for half-maximal inhibition (IC50) was 0.163 µM.

In the case of `Cc1cnc(Nc2cccc(C(N)=O)c2)nc1Nc1ccc2c(n1)N(C)C(=O)C(C)(C)O2` [II-43, N2-(3-Aminocarbonylphenyl)-5-methyl-N4-(2,2,4-trimethyl-3-oxo-5-pyrido[1,4]oxazin-6-yl)-2,4-pyrimidinediamine], the IC50 stood at 0.229 µM.

For `Cc1cnc(Nc2cccc(C(N)=O)c2)nc1Nc1ccc2c(c1)NC(=O)CS2` [II-44, N2-(3-Aminocarbonylphenyl)-N4-(3,4-dihydro-2H-3-oxo-4H-benz[1,4]thiazin-6-yl)-5-methyl-2,4-pyrimidinediamine], the half-inhibitory concentration (IC50) is 0.189 µM.
